Here are results for one compound from patent publication US20210395327A1, “Growth Hormone-Releasing Hormone Antagonists and Uses Thereof” (United States Government As Represented By The Department …, priority 2019, published 2021).

Format in all cases: in vivo, C57Bl/6J mice
The subject of test [1] is bleomycin-induced lung inflammation and fibrosis. The test is described as follows: Bleomycin mouse model, lung histopathology scores. The note with it: bleomycin-treated mice. The method, then:
(§1) Abstract. Purpose. Growth hormone-releasing hormone (GHRH) is a 44-amino acid peptide that regulates growth hormone (GH) secretion. It was tested whether a GHRH receptor (GHRH-R) antagonist, MIA-602, would inhibit bleomycin-induced lung inflammation and/or fibrosis in C57Bl/6J mice. Methods. It was tested whether MIA-602 (5 μg or vehicle given subcutaneously [SC] on days 1-21) would decrease lung inflammation (at day 14) and/or fibrosis (at day 28) in mice treated with intraperitoneal (IP) bleomycin (0.8 units on days 1, 3, 7, 10, 14 and 21). […] Results. Inflammation (histopathologic scores assessed blindly) was less evident in mice treated with MIA-602 for 14 days. […] GHRH-R antagonist increased basal and maximal oxygen consumption of cultured lung fibroblasts. […] Conclusions. MIA-602 reduced lung inflammation and fibrosis due to bleomycin.
Experimental animals. 8-week old C57Bl/6J male mice (The Jackson Laboratory, Bar Harbor, Me.) were used in these experiments. Mice weighed about 26 grams at the start. Mice were randomly allocated to the experimental groups and housed in identical filter top cages in a ventilated rack. Mice were exposed to a 12-hour light/dark cycle and had free access to standard laboratory chow and water.
(§2) Bleomycin and GHRH-R antagonist treatment. Mice were treated with 0.8 units of bleomycin (Bleomycin for Injection USP, Hospira, Lake Forest, Ill.) intraperitoneally (IP) on days 1, 3, 7, 10, 14 and 21 (Collins S, Chan-Li Y, Oh M, Vigeland C, Limjunyawong N, Mitzner W, Powell J D, Horton M R (2016). JCI Insight 1(4):1-13). Mice (randomly assigned) were simultaneously treated subcutaneously (sc) with MIA-602 (5 μg/day) or its vehicle (100 μL/day). MIA-602 was dissolved in DMSO (ACS grade; Sigma-Aldrich) and diluted 1:500 in normal saline for daily sc injection on days 0-21.
(§3) Tissue preparations. Mice were killed by CO2 inhalation before any treatment, or on days 14 or 28 for micro-CT scans of lungs and harvesting of lung tissue (Vande Vel de G, Poelmans J, De Langhe E, Hillen A, Vanoirbeek J, Himmelreich U, Lories R (2016). Dis Model Mech 9:91). The right mainstem bronchus was ligated and the right lung removed and frozen at −80° C. for hydroxyproline (HP) assays. The left lung was filled with 10% buffered formalin at […] cm H2O pressure, the bronchus ligated, and the lung fixed in formalin. Fixed lungs were embedded in wax and 5 μm sections stained with hematoxylin and eosin (H&E) or Masson's trichrome stain.
Lung histopathology. Fibrosis was quantified in trichrome-stained sections using a modification of the Ashcroft score that describes grades of fibrosis. Inflammation in lung tissue was quantified in H&E stained sections (Hubner R, Gitter W, El Mokhtari N, Mathiak M, Both M, Bolte H, Freitag-Wolf S, Bewig B (2008). Biotechniques 44:507-517).
Data analysis. Data are reported as arithmetic means±SEM or SD as indicated. Confidence intervals (5-95%) and ranges were used to describe histopathological scores. ANOVA followed by Dunnett's test or the Bonnferoni correction was used for multiple comparisons with a control or among groups (Kusuoka H, Hoffman J (2002). Circ Res 91:662-671). At least six mice were planned to be available at each time point in each group, so that there would be sufficient power to detect a 20% change in lung hydroxyproline given an assumed coefficient of variance of 0.2. P≤0.05 was considered significant.

In test [2] the test system is bleomycin-induced lung infiltrates. The test is described as follows: Bleomycin mouse model, micro-CT of lungs. The following applies: bleomycin plus MIA-602 vs vehicle. The method, then: as §2, §3
Micro-CT. Mice in each group were assessed by micro-CT scans (Bruker SkyScan 1176 Low Dose Micro-CT, Knotich, Belgium) of the lungs after CO2 inhalation. […]

For test [3], the system named is bleomycin-induced lung fibrosis (lung hydroxyproline content). Put plainly: Bleomycin mouse model, lung hydroxyproline assay. The note with it: bleomycin IP. The method, then: as §1
Experimental animals. 8-week old C57Bl/6J male mice (The Jackson Laboratory, Bar Harbor, Me.) were used in these experiments. Mice weighed about 26 grams at the start. Mice were randomly allocated to the experimental groups and housed in identical filter top cages in a ventilated rack. Mice were exposed to a 12-hour light/dark cycle and had free access to standard laboratory chow and water. […]
Hydroxyproline assay. […] Hydroxyproline was measured colorimetrically (560 nm) after hydrolysis using an assay kit (MAK008, Sigma-Aldrich, St. Louis, Mo.). […]

The structures appear in SMILES notation. Entries after “also recorded” stand apart in the source; their conditions may differ. Non-standard residues stand in square brackets, D forms with d. Residues, ends and D or L forms follow the SMILES beside them. *: point of attachment. Phe(F5) = N[C@@H](Cc1c(F)c(F)c(F)c(F)c1F)C(=O)O; hArg = N=C(N)NCCCC[C@H](N)C(=O)O; 12Ado = NCCCCCCCCCCCC(=O)O; Nle = CCCC[C@H](N)C(=O)O; Orn = NCCC[C@H](N)C(=O)O; Abu = CC[C@H](N)C(=O)O; PhAc = O=C(Cc1ccccc1)*

For the compound `CCCC[C@H](NC(=O)[C@@H](NC(=O)[C@H](CC(=O)O)NC(=O)[C@H](CCC(N)=O)NC(=O)[C@H](CC(C)C)NC(=O)[C@H](CC(C)C)NC(=O)[C@H](CCCN)NC(=O)[C@H](Cc1c[nH]cn1)NC(=O)[C@H](C)NC(=O)[C@H](CO)NC(=O)[C@H](CC(C)C)NC(=O)[C@H](CCC(N)=O)NC(=O)[C@H](CC)NC(=O)[C@H](CC(C)C)NC(=O)[C@@H](NC(=O)[C@H](CCCN)NC(=O)[C@H](Cc1c[nH]cn1)NC(=O)[C@H](Cc1ccc(OC)cc1)NC(=O)[C@H](CCCCNC(=N)N)NC(=O)[C@H](C)NC(=O)[C@@H](NC(=O)[C@H](Cc1c(F)c(F)c(F)c(F)c1F)NC(=O)[C@@H](NC(=O)[C@H](C)NC(=O)[C@H](CC(=O)O)NC(=O)[C@@H](CCCNC(=N)N)NC(=O)[C@H](Cc1ccc(O)cc1)NC(=O)CCCCCCCCCCCNC(=O)Cc1ccccc1)[C@@H](C)CC)[C@@H](C)O)C(C)C)[C@@H](C)CC)C(=O)N[C@H](CCCNC(=N)N)C(=O)N[C@@H](CCCCNC(=N)N)C(N)=O` [MIA-602, PhAC-Ada, Tyr D-Arg, Asp, Ala, Ile, 5FPhe, Thr, Ala, Har, Tyr(Me), His, Orn, Val, Leu, Abu, Gin, Leu, Ser, Ala, His, Om, Leu, Leu, Gin, Asp, Ile; Nle, D-Arg, Har NH2, reference compound] ({PhAc-12Ado}-Y[dR]DAI[Phe(F5)]TA[hArg]Y(Me)H[Orn]VL[Abu]QLSAH[Orn]LLQDI[Nle][dR][hArg]-NH2), in test [1] (after 14 days, n=4), the “lung inflammation histopathologic score, 5%-95% CI” value is listed as 0.4-1.4 and the “lung inflammation histopathologic score, range” value is given as 0.6-1.2. In test [1] (after 28 days, n=5), the “lung fibrosis histopathologic score (modified Ashcroft), 5%-95% CI” value is 1.1-2.9 and the “lung fibrosis histopathologic score (modified Ashcroft), range” value is given as 1.0-3.0. Moreover, in test [1] (MIA-602 vs vehicle), the “lung fibrosis, histopathology (in words)” value is recorded as “decreased; also recorded: Less fibrosis appeared to be present” and the “lung inflammation, histopathology (in words)” value is on record as “decreased; also recorded: Less inflammation appeared to be present”. In test [2], the “infiltrative densities in lungs, micro-CT (in words)” value was “less prominent infiltrative densities”. In test [3] (14 days, MIA-602 5 μg/day sc), the “lung hydroxyproline (HP) content, change (in words)” value is “did not increase significantly”. For the same compound, in test [3] (28 days, MIA-602 5 μg/day sc days 1-21, right lung), the “lung hydroxyproline (HP) content, change (in words)” value is given as “increased significantly in bleomycin-treated mice that received vehicle, but not in bleomycin-treated mice that received MIA-602; also recorded: No significant increase in HP content”.
